Data published in ChEMBL document CHEMBL5316366, “Immunomodulatory Effects of New Phenanthrene Derivatives from Dendrobium crumenatum” (J Nat Prod, 2023).
Calls of active or inactive are those of the source. The calls are words filed in the database; no cut-off is given here.

Key:
PBMC [1] = experiment: Cytotoxicity against human PBMC assessed as late apoptotic cells at 1 to 20 uM incubated for 4 hrs by Annexin V-FITC/7-AAD staining based flow cytometric analysis; assay type: toxicity, cell-based; conditions: dose 1-20 µM
PBMC [2] = experiment: Immunomodulatory activity in human PBMC derived from multiple sclerosis patient assessed as reduction in TNF-alpha expressing CD3+ T cells at 10 uM incubated for 4 hrs by flow cytometry; assay type: functional, cell-based
PBMC [3] = experiment: Inhibition of Ca2+ influx in human PBMC derived from multiple sclerosis patient assessed as reduction in Ca2+ influx rate in CD8+ T cells at 10 uM incubated for 4 hrs by Fluo-4 AM staining based flow cytometry method; assay type: functional, cell-based
PBMC [4] = experiment: Immunomodulatory activity in PMA/ionomycin-induced human PBMC assessed as reduction in frequency of IL-2 expressing CD3+ T cells at 1 to 20 uM incubated for 4 hrs by flow cytometry; assay type: functional, cell-based; conditions: dose 1-20 µM
PBMC [5] = experiment: Inhibition of Ca2+ influx in human PBMC derived from multiple sclerosis patient assessed as reduction in Ca2+ influx rate in CD4+ T cells at 10 uM incubated for 4 hrs by Fluo-4 AM staining based flow cytometry method; assay type: functional, cell-based
PBMC [6] = experiment: Immunomodulatory activity in human PBMC derived from multiple sclerosis patient assessed as reduction in IL-2 expressing CD3+ T cells at 10 uM incubated for 4 hrs by flow cytometry; assay type: functional, cell-based
PBMC [7] = experiment: Cytotoxicity against human PBMC assessed as early apoptotic cells at 1 to 20 uM incubated for 4 hrs by Annexin V-FITC/7-AAD staining based flow cytometric analysis; assay type: toxicity, cell-based; conditions: dose 1-20 µM
PBMC [8] = experiment: Immunomodulatory activity in human PBMC derived from multiple sclerosis patient assessed as reduction in IFN-gamma expressing CD3+ T cells at 10 uM incubated for 4 hrs by flow cytometry; assay type: functional, cell-based
PBMC [9] = experiment: Inhibition of Ca2+ influx in human PBMC derived from multiple sclerosis patient assessed as decrease in Ca2+ influx rate in CD4+ T cells at 1 uM incubated for 4 hrs by Fluo-4 AM staining based flow cytometry method; assay type: functional, cell-based
PBMC [10] = experiment: Inhibition of Ca2+ influx in human PBMC derived from multiple sclerosis patient assessed as decrease in Ca2+ influx rate in CD8+ T cells at 1 uM incubated for 4 hrs by Fluo-4 AM staining based flow cytometry method; assay type: functional, cell-based
PBMC [11] = experiment: Immunomodulatory activity in multiple sclerosis patient derived PBMC derived from multiple sclerosis patient assessed as increase in frequency of CTLA4+CRTH2+ CD8+ T cells by CyTOF assay; assay type: functional, cell-based; conditions: Homo sapiens
PBMC [12] = experiment: Immunomodulatory activity in PMA/ionomycin-induced human PBMC derived from multiple sclerosis patient assessed as reduction in frequency of reactive ICOS+ CD4+ T cells by CyTOF assay; assay type: functional, cell-based
PBMC [13] = experiment: Immunomodulatory activity in PMA/ionomycin-induced human PBMC derived from multiple sclerosis patient assessed as decrease in frequency of CD161+ CD3+T-bet+CD4-CD8-CD14- double negative T cells by CyTOF assay; assay type: functional, cell-based
PBMC [14] = experiment: Immunomodulatory activity in multiple sclerosis patient derived PBMC derived from multiple sclerosis patient assessed as reduction in frequency of reactive ICOS+ CD4+ T cells by CyTOF assay; assay type: functional, cell-based; conditions: Homo sapiens
PBMC [15] = experiment: Immunomodulatory activity in PMA/ionomycin-induced human PBMC derived from multiple sclerosis patient assessed as increase in frequency of CTLA4+CRTH2+ CD8+ T cells by CyTOF assay; assay type: functional, cell-based
PBMC [16] = experiment: Immunomodulatory activity in PMA/ionomycin-induced human PBMC assessed as reduction in frequency of IFN-gamma expressing CD3+ activated T cells at 1 to 20 uM incubated for 4 hrs by flow cytometry; assay type: functional, cell-based; conditions: dose 1-20 µM
PBMC [17] = experiment: Immunomodulatory activity in PMA/ionomycin-induced human PBMC assessed as reduction in frequency of TNF-alpha expressing CD14+ inflammatory monocytes at 1 to 20 uM incubated for 4 hrs by flow cytomtery; assay type: functional, cell-based; conditions: dose 1-20 µM

Structure (SMILES)	Activity (PBMC [1])	Activity (PBMC [2])	inhibition (PBMC [3])	Activity (PBMC [4])	inhibition (PBMC [5])	Activity (PBMC [6])	Activity (PBMC [7])	Activity (PBMC [8])	also measured
COc1cc2c(c(OC)c1O)-c1ccc(O)c(O)c1CC2	Non-Toxic	Active	inactive	Active	inactive	Active	Non-Toxic	Active	–
COc1cc2ccc3c(OC)c(O)ccc3c2c(OC)c1O	–	–	–	Active	–	–	–	–	–
Cc1cccc(F)c1C(=O)Nc1cnc(-c2cc3c(cc2Cl)OC(F)(F)O3)cn1	–	–	–	–	–	–	–	–	inhibition (PBMC [9]): Active; inhibition (PBMC [10]): Active
COC1=CC(=O)c2c(ccc3c(OC)c(O)ccc23)C1=O	–	–	–	Active	–	–	–	–	–
COC1=CC(=O)c2c(ccc3c(OC)c(O)ccc23)[C@@]12Oc1cc(OC)cc3ccc4c(c13)C2=CC(=O)C4=O	Non-Toxic	Active	inactive	Active	inactive	Active	Non-Toxic	Active	Activity (PBMC [11]): Active; Activity (PBMC [12]): Active; Activity (PBMC [13]): Active; Activity (PBMC [14]): Active; Activity (PBMC [15]): Active; Activity (PBMC [16]): Active; Activity (PBMC [17]): Active
